Test results reported in US6914045B2, “Glycopeptide antibiotics” (Wyeth Holdings Corporation, priority 2001, dated 2005).
≈ marks a conversion by molar mass, not a printed value.

Tests used:
Assay in all cases: in vitro antibacterial evaluation, MIC by broth dilution
Assay type in all cases: cell-based
[1] = tested on: Streptococcus sp.; settings: broth dilution, 18 hours at 35° C.
In short: (§1)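 Test organisms, which included recent clinical isolates resistant to methicillin, penicillin and/or vancomycin, were inoculated at 5×10^5 CFU/mL into Muller-Hinton II […] containing antibiotic at 64-0.06 μg/mL. Minimum inhibitory concentrations were then read as the lowest level inhibiting growth.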

[2] = tested on: Escherichia coli; settings: 18 hours at 35° C.
In short: as §1

[3] = tested on: Enterococcus sp.; settings: broth dilution, 18 hours at 35° C.
In short: as §1

[4] = tested on: Staphylococcus sp.; settings: broth dilution, 18 hours at 35° C.
In short: as §1

Compound: N=C1NCC(C(O)C2NC(=O)C(Cc3ccc(OC4OC(CO)C(OC5OC6COC7(OC6C6OC8(OC56)C5CC6CC(C5)CC8C6)C5CC6CC(C5)CC7C6)C(O)C4O)cc3)NC(=O)C(CC3CCCCC3)NC(=O)CNC(=O)C(CO)NC(=O)C(C(O)C3CNC(=N)N3C3OC(CO)C(O)C(O)C3O)NC2=O)N1 (centres unmarked) [Example 106b, Cyclo[3-cyclohexylalanyl-O-[4-O-[2,3:4,6-di-O-(2-adamantylidene)hexopyranosyl]hexopyranosyl]tyrosyl-3-(2-iminoimidazolidin-4-yl)seryl-3-(3-hexopyranosyl-2-iminoimidazolidin-4-yl)-serylserylglycyl]]
- MIC Streptococcus agalactiae (GC 4564) ([1]; Streptococcus agalactiae (GC 4564)): 0.5 µg/mL (≈ 0.322 µM)
- MIC Streptococcus pneumoniae (ATCC 6301) ([1]; Streptococcus pneumoniae (ATCC 6301)): 0.5 µg/mL (≈ 0.322 µM)
- MIC Streptococcus pneumoniae (GC 1894) ([1]; Streptococcus pneumoniae (GC 1894)): <0.12 µg/mL
- MIC Streptococcus pneumoniae (GC 4565) ([1]; Streptococcus pneumoniae (GC 4565)): 0.5 µg/mL (≈ 0.322 µM)
- MIC Streptococcus pyogenes (GC 4563) ([1]; Streptococcus pyogenes (GC 4563)): 0.5 µg/mL (≈ 0.322 µM)
- MIC Streptococcus pneumoniae (ATCC 6301) ([1]; strain ATCC 6301): 0.5 µg/mL (≈ 0.322 µM)
- MIC Streptococcus pneumoniae (GC 1894) ([1]; strain GC 1894): <0.12 µg/mL
- MIC Streptococcus pyogenes (GC 4563) ([1]; strain GC 4563): 0.5 µg/mL (≈ 0.322 µM)
- MIC Streptococcus agalactiae (GC 4564) ([1]; strain GC 4564): 0.5 µg/mL (≈ 0.322 µM)
- MIC Streptococcus pneumoniae (GC 4565) ([1]; strain GC 4565): 0.5 µg/mL (≈ 0.322 µM)
- MIC Escherichia coli (ATCC 25922) ([2]; strain ATCC 25922): 64 µg/mL (≈ 41.2 µM)
- MIC Escherichia coli (GC 4559) ([2]; strain GC 4559): 32 µg/mL (≈ 20.6 µM)
- MIC Escherichia coli (GC 4560) ([2]; strain GC 4560): 8 µg/mL (≈ 5.16 µM)
- MIC Enterococcus avium (GC 4558) ([3]; Enterococcus avium (GC 4558)): 4 µg/mL (≈ 2.58 µM)
- MIC Enterococcus faecalis (ATCC 29212) ([3]; Enterococcus faecalis (ATCC 29212)): 8 µg/mL (≈ 5.16 µM)
- MIC Enterococcus faecalis (GC 2242) ([3]; Enterococcus faecalis (GC 2242)): 8 µg/mL (≈ 5.16 µM)
- MIC Enterococcus faecalis (GC 2691) ([3]; Enterococcus faecalis (GC 2691)): 16 µg/mL (≈ 10.3 µM)
- MIC Enterococcus faecalis (GC 3059) ([3]; Enterococcus faecalis (GC 3059)): 16 µg/mL (≈ 10.3 µM)
- MIC Enterococcus faecalis (GC 4552) ([3]; Enterococcus faecalis (GC 4552)): 8 µg/mL (≈ 5.16 µM)
- MIC Enterococcus faecalis (GC 4553) ([3]; Enterococcus faecalis (GC 4553)): 8 µg/mL (≈ 5.16 µM)
- MIC Enterococcus faecalis (GC 4554) ([3]; Enterococcus faecalis (GC 4554)): 16 µg/mL (≈ 10.3 µM)
- MIC Enterococcus faecalis (GC 6189) ([3]; Enterococcus faecalis (GC 6189)): 8 µg/mL (≈ 5.16 µM)
- MIC Enterococcus faecium (GC 2243) ([3]; Enterococcus faecium (GC 2243)): 8 µg/mL (≈ 5.16 µM)
- MIC Enterococcus faecium (GC 4556) ([3]; Enterococcus faecium (GC 4556)): 8 µg/mL (≈ 5.16 µM)
- MIC Enterococcus faecium (GC 4557) ([3]; Enterococcus faecium (GC 4557)): 4 µg/mL (≈ 2.58 µM)
- MIC Enterococcus faecalis (ATCC 29212) ([3]; strain ATCC 29212): 8 µg/mL (≈ 5.16 µM)
- MIC Enterococcus faecalis (GC 2242) ([3]; strain GC 2242): 8 µg/mL (≈ 5.16 µM)
- MIC Enterococcus faecium (GC 2243) ([3]; strain GC 2243): 8 µg/mL (≈ 5.16 µM)
- MIC Enterococcus faecalis (GC 2691) ([3]; strain GC 2691): 16 µg/mL (≈ 10.3 µM)
- MIC Enterococcus faecalis (GC 3059) ([3]; strain GC 3059): 16 µg/mL (≈ 10.3 µM)
- MIC Enterococcus faecalis (GC 4552) ([3]; strain GC 4552): 8 µg/mL (≈ 5.16 µM)
- MIC Enterococcus faecalis (GC 4553) ([3]; strain GC 4553): 8 µg/mL (≈ 5.16 µM)
- MIC Enterococcus faecalis (GC 4554) ([3]; strain GC 4554): 16 µg/mL (≈ 10.3 µM)
- MIC Enterococcus faecium (GC 4556) ([3]; strain GC 4556): 8 µg/mL (≈ 5.16 µM)
- MIC Enterococcus faecium (GC 4557) ([3]; strain GC 4557): 4 µg/mL (≈ 2.58 µM)
- MIC Enterococcus avium (GC 4558) ([3]; strain GC 4558): 4 µg/mL (≈ 2.58 µM)
- MIC Enterococcus faecalis (GC 6189) ([3]; strain GC 6189): 8 µg/mL (≈ 5.16 µM)
- MIC Coagulase Negative Staphylococcus (GC 4547) [4]: 8 µg/mL (≈ 5.16 µM)
- MIC Coagulase Negative Staphylococcus (GC 4548) [4]: 4 µg/mL (≈ 2.58 µM)
- MIC Coagulase Negative Staphylococcus (GC 4549) [4]: 4 µg/mL (≈ 2.58 µM)
- MIC Coagulase Negative Staphylococcus (GC 4551) [4]: 8 µg/mL (≈ 5.16 µM)
- MIC Staphylococcus aureus (ATCC 29213) [4]: 8 µg/mL (≈ 5.16 µM)
- MIC Staphylococcus aureus (GC 1131) [4]: 8 µg/mL (≈ 5.16 µM)
- MIC Staphylococcus aureus (GC 3051) [4]: 8 µg/mL (≈ 5.16 µM)
- MIC Staphylococcus aureus (GC 3053) [4]: 8 µg/mL (≈ 5.16 µM)
- MIC Staphylococcus aureus (GC 4541) [4]: 16 µg/mL (≈ 10.3 µM)
- MIC Staphylococcus aureus (GC 4542) [4]: 8 µg/mL (≈ 5.16 µM)
- MIC Staphylococcus aureus (GC 4544) [4]: 16 µg/mL (≈ 10.3 µM)
- MIC Staphylococcus aureus (GC 4545) [4]: 8 µg/mL (≈ 5.16 µM)
- MIC Staphylococcus aureus-SMITH (GC 4543) [4]: 8 µg/mL (≈ 5.16 µM)
- MIC Staphylococcus haemolyticus (GC 4546) [4]: 4 µg/mL (≈ 2.58 µM)
- MIC Staphylococcus haemolyticus (GC 4546) ([4]; strain GC 4546): 4 µg/mL (≈ 2.58 µM)
- MIC Coagulase Negative Staphylococcus (GC 4547) ([4]; strain GC 4547): 8 µg/mL (≈ 5.16 µM)
- MIC Coagulase Negative Staphylococcus (GC 4548) ([4]; strain GC 4548): 4 µg/mL (≈ 2.58 µM)
- MIC Coagulase Negative Staphylococcus (GC 4549) ([4]; strain GC 4549): 4 µg/mL (≈ 2.58 µM)
- MIC Coagulase Negative Staphylococcus (GC 4551) ([4]; strain GC 4551): 8 µg/mL (≈ 5.16 µM)
- MIC Staphylococcus aureus-SMITH (GC 4543) ([4]; strain SMITH GC 4543): 8 µg/mL (≈ 5.16 µM)
- MIC Staphylococcus aureus (ATCC 29213) ([4]; strain ATCC 29213): 8 µg/mL (≈ 5.16 µM)
- MIC Staphylococcus aureus (GC 1131) ([4]; strain GC 1131): 8 µg/mL (≈ 5.16 µM)
- MIC Staphylococcus aureus (GC 3051) ([4]; strain GC 3051): 8 µg/mL (≈ 5.16 µM)
- MIC Staphylococcus aureus (GC 3053) ([4]; strain GC 3053): 8 µg/mL (≈ 5.16 µM)
- MIC Staphylococcus aureus (GC 4541) ([4]; strain GC 4541): 16 µg/mL (≈ 10.3 µM)
- MIC Staphylococcus aureus (GC 4542) ([4]; strain GC 4542): 8 µg/mL (≈ 5.16 µM)
- MIC Staphylococcus aureus (GC 4544) ([4]; strain GC 4544): 16 µg/mL (≈ 10.3 µM)
- MIC Staphylococcus aureus (GC 4545) ([4]; strain GC 4545): 8 µg/mL (≈ 5.16 µM)
